Key:
morningglory = experiment: Test A preemergence; format: in vivo, Ipomoea spp.; conditions: Ipomoea, pre-emergence, 240 h, 0 to 100 scale (0 no effect, 100 complete control), read-out: Plant response rating, Morningglory
Summary of the method: (§1)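 Test chemicals, formulated in a surfactant-containing non-phytotoxic solvent mixture, are applied either as a directed soil spray to newly planted seeds or as a postemergence application to plants at the one- to two-leaf stage (2–10 cm). All plants grow in a loam soil and sand blend.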

crabgrass, large = experiment: Test A postemergence; format: in vivo, Digitaria sanguinalis; conditions: Digitaria sanguinalis, post-emergence, 240 h, 0 to 100 scale (0 no effect, 100 complete control), approx. 10 d, read-out: Plant response rating, Crabgrass, Large
Summary of the method: as §1

johnsongrass = experiment: Test C preemergence; format: in vivo, Sorghum halepense; conditions: for Plant response rating (scale of 0 to 100 where 0 is no effect and 100 is complete control): Johnsongrass, preemergence; for Johnsongrass plant response rating (0 to 100): Preemergence, visual rating after 13 to 15 d
Text: (§2) Seeds of plant species selected from blackgrass (Alopecurus myosuroides), ryegrass, Italian (Italian ryegrass, Lolium multiflorum), wheat (winter wheat, Triticum aestivum), galium (catchweed bedstraw, Galium aparine), corn (Zea mays), crabgrass, large (large crabgrass, Digitaria sanguinalis), foxtail, giant, (giant foxtail, Setaria faberii), johnsongrass (Sorghum halepense), lambsquarters (Chenopodium album), morningglory (Ipomoea coccinea), nutsedge, yellow (yellow nutsedge, Cyperus esculentus), pigweed (Amaranthus retroflexus), ragweed (common ragweed, Ambrosia elatior), soybean (Glycine max), barnyardgrass (Echinochloa crus-galli), oilseed rape (Brassica napus), waterhemp (common waterhemp, Amaranthus rudis), and velvetleaf (Abutilon theophrasti) were planted into a blend of loam soil and sand and treated preemergence with test chemicals formulated in a non-phytotoxic solvent mixture which included a surfactant. At the same time, plants selected from these crop and weed species and also chickweed (common chickweed, Stellaria media), oat, wild (wild oat, Avena fatua), and kochia (Kochia scoparia), were planted in pots containing Sunshine Redi-Earth® planting medium comprising spaghnum peat moss, vermiculite, starter nutrients and dolomitic limestone and treated with postemergence applications of test chemicals formulated in the same manner. Plants ranged in height from 2 to 18 cm (1- to 4-leaf stage) for postemergence treatments. […] A dash (-) response means no test result.

pigweed = experiment: Test C preemergence; format: in vivo, Amaranthus retroflexus; conditions: for Plant response rating (scale of 0 to 100 where 0 is no effect and 100 is complete control): Pigweed, preemergence; for Pigweed plant response rating (0 to 100): Preemergence, visual rating after 13 to 15 d
Text: as §2

velvetleaf = experiment: Test C preemergence; format: in vivo, Abutilon theophrasti; conditions: for Velvetleaf plant response rating (0 to 100): Preemergence, visual rating after 13 to 15 d
Text: as §2

blackgrass = experiment: Test D preemergence; format: in vivo, Alopecurus myosuroides; conditions: scale 0 to 100
Text: (§3) Seeds of plant species selected from bluegrass (annual bluegrass, Poa annua), blackgrass (Alopecurus myosuroides), canarygrass (Phalaris minor), chickweed (common chickweed, Stellaria media), galium (catchweed bedstraw, Galium aparine), bromegrass, down (downy bromegrass, Bromus tectorum), Russian thistle (Salsola kali), field poppy (Papaver rhoeas), field violet (Viola arvensis), foxtail, green (green foxtail, Setaria viridis), deadnettle (henbit deadnettle, Lamium amplexicaule), ryegrass, Ital. (Italian ryegrass, Lolium multiflorum), kochia (Kochia scoparia), lambsquarters (Chenopodium album), oilseed rape (Brassica napus), pigweed (Amaranthus retroflexus), chamomile (scentless chamomile, Matricaria inodora), speedwell (bird's-eye speedwell, Veronica persica), barley, spring (spring barley, Hordeum vulgare), wheat, spring (spring wheat, Triticum aestivum), buckwheat, wild (wild buckwheat, Polygonum convolvulus), wild mustard (Sinapis arvensis), oat, wild (wild oat, Avena fatua), radish, wild (wild radish, Raphanus raphanistrum), […]), barley, winter (winter barley, Hordeum vulgare), and wheat, winter (winter wheat, Triticum aestivum) were planted into a silt loam soil and treated preemergence with test chemicals formulated in a non-phytotoxic solvent mixture which included a surfactant. At the same time, these species were planted in pots containing Sunshine Redi-Earth® planting medium comprising spaghnum peat moss, vermiculite, starter nutrients and dolomitic limestone and treated with postemergence applications of the test chemicals formulated in the same manner. Plants ranged in height from 2 to 18 cm (1- to 4-leaf stage). Treated plants and controls were maintained in a controlled growth environment for 14 to 21 d after which time all species were compared to controls and visually evaluated. […] A dash (-) response means no test result.

chickweed = experiment: Test D preemergence; format: in vivo, Stellaria media; conditions: scale 0 to 100
Text: as §3

chamomile = experiment: Test D preemergence; format: in vivo, Matricaria inodora; conditions: scale 0 to 100
Text: as §3

wheat, spring = experiment: Test D preemergence; format: in vivo, Triticum aestivum; conditions: scale 0 to 100
Text: as §3

wheat, winter = experiment: Test D preemergence; format: in vivo, Triticum aestivum; conditions: scale 0 to 100
Text: as §3

bluegrass = experiment: Test D postemergence; format: in vivo, Poa annua; conditions: scale 0 to 100
Text: as §3

wild mustard = experiment: Test D postemergence; format: in vivo, Sinapis arvensis; conditions: scale 0 to 100
Text: as §3

## CCc1nc(-c2ccc(C(F)(F)F)cc2)nn1Cc1ccnc(C(F)(F)F)c1 [Compound 1, 4-[[5-ethyl-3-[4-(trifluoromethyl)phenyl]-1H-1,2,4-triazol-1-yl]methyl]-2-(trifluoromethyl)pyridine]
morningglory; 125 g ai/ha
  pest or weed control at 125 g/ha: 30%
morningglory; 500 g ai/ha, approx. 10 d
  pest or weed control at 500 g/ha: 80%
crabgrass, large; 125 g ai/ha
  pest or weed control at 125 g/ha: 100%
crabgrass, large; 500 g ai/ha
  pest or weed control at 500 g/ha: 100%
johnsongrass; 125 g ai/ha
  Plant response rating (scale of 0 to 100 where 0 is no effect and 100 is complete control): 55
johnsongrass; 250 g ai/ha
  Plant response rating (scale of 0 to 100 where 0 is no effect and 100 is complete control): 80
johnsongrass; 31 g ai/ha
  Johnsongrass plant response rating (0 to 100): 25
johnsongrass; 62 g ai/ha
  Johnsongrass plant response rating (0 to 100): 35
pigweed; 125 g ai/ha
  Plant response rating (scale of 0 to 100 where 0 is no effect and 100 is complete control): 100
pigweed; 250 g ai/ha
  Plant response rating (scale of 0 to 100 where 0 is no effect and 100 is complete control): 100
pigweed; 31 g ai/ha
  Pigweed plant response rating (0 to 100): 100
pigweed; 62 g ai/ha
  Pigweed plant response rating (0 to 100): 100
velvetleaf; 31 g ai/ha
  Velvetleaf plant response rating (0 to 100): 15
velvetleaf; 62 g ai/ha
  Velvetleaf plant response rating (0 to 100): 30
velvetleaf; Velvetleaf, preemergence, 250 g ai/ha
  Plant response rating (scale of 0 to 100 where 0 is no effect and 100 is complete control): 75
blackgrass; 31 g ai/ha
  Plant response rating: Blackgrass: 15
blackgrass; 62 g ai/ha
  Plant response rating: Blackgrass: 35
blackgrass; 125 g ai/ha
  Plant response rating: Blackgrass: 35
blackgrass; 250 g ai/ha
  Plant response rating: Blackgrass: 65
chickweed; 31 g ai/ha
  Plant response rating: Chickweed: 90
chickweed; 62 g ai/ha
  Plant response rating: Chickweed: 100
chickweed; 125 g ai/ha
  Plant response rating: Chickweed: 100
chickweed; 250 g ai/ha
  Plant response rating: Chickweed: 100
chamomile; 31 g ai/ha
  Plant response rating: Chamomile: 0
chamomile; 62 g ai/ha
  Plant response rating: Chamomile: 20
chamomile; 125 g ai/ha
  Plant response rating: Chamomile: 80
chamomile; 250 g ai/ha
  Plant response rating: Chamomile: 100
wheat, spring; 62 g ai/ha
  Plant response rating: Wheat, Spring: 0
wheat, spring; 125 g ai/ha
  Plant response rating: Wheat, Spring: 0
wheat, spring; 250 g ai/ha
  Plant response rating: Wheat, Spring: 5
wheat, winter; 62 g ai/ha
  Plant response rating: Wheat, Winter: 0
wheat, winter; 125 g ai/ha
  Plant response rating: Wheat, Winter: 0
wheat, winter; 250 g ai/ha
  Plant response rating: Wheat, Winter: 0
bluegrass; 31 g ai/ha
  Plant response rating: Bluegrass: 10
bluegrass; 62 g ai/ha
  Plant response rating: Bluegrass: 20
bluegrass; 125 g ai/ha
  Plant response rating: Bluegrass: 35
bluegrass; 250 g ai/ha
  Plant response rating: Bluegrass: 55
Wild mustard; 31 g ai/ha
  Plant response rating: Mustard, Wild: 100
Wild mustard; 62 g ai/ha
  Plant response rating: Mustard, Wild: 100
Wild mustard; 125 g ai/ha
  Plant response rating: Mustard, Wild: 100
Wild mustard; 250 g ai/ha
  Plant response rating: Mustard, Wild: 100

Source: patent US10681909B2, “Herbicidal triazoles” (FMC Corporation, priority 2014, dated 2020)
